Reference: article PMC7699649 (Communications Biology, 2020)
Non-standard residues stand in square brackets, D forms with d. Residues, ends and D or L forms follow the SMILES beside them.

What was measured:
[1] = tested on: HEK293; assay type: cell-based, human; details: 24 h
Procedure: (§1) HeLa and HEK293 cell lines were purchased from ECACC and cultured in Eagle’s Minimum Essential Media containing glutamine, supplemented with 10% FBS and 1X non-essential amino acids. A549 and Calu-3 cell lines were purchased from ATCC. […] Cytotoxicity was measured by incubating starter cultures of cells for 24 h in a 96 well plate, gently removing the supernatant and replacing it with dilutions of peptides and controls, incubating for a further 24 h and then staining of the cells with the second-generation tetrazolium dye, XTT.

[2] = tested on: A549; assay type: cell-based; details: 24 h
Procedure: as §1

[3] = tested on: Calu-3; assay type: cell-based; details: 24 h
Procedure: as §1

[4] = tested on: HeLa; assay type: cell-based; details: 24 h
Procedure: as §1

[5] = tested on: human red blood cells; test: Haemolysis assay; assay type: cell-based; details: human red blood cells in PBS, 1 h 37 °C, OD550, relative to 0.1% Triton-X-100
Procedure: Haemolysis was tested by incubating titrations of AMPs in PBS with freshly collected human red blood cells for 1 h at 37 °C. Control wells were treated with 0.1% Triton-X-100 to ensure complete lysis, or PBS-only to represent no lysis. Samples were spun down to remove non-lysed cells and the OD550 of the supernatant was measured using a Clariostar plate reader. The percentage of haemolysis was calculated as % haemolysis = (AP − AB)/(AC − AB) × 100, where AP is the absorbance value for a known peptide concentration, AC is the absorbance of the 0.1% Triton-X-100 control, AB is the absorbance of the PBS control. Data presented are averages and standard error from three biological replicate experiments.

[6] = tested on: EMRSA-15; test: 1H HR-MAS NMR metabolomics of bacterial pellets; assay type: cell-based, Staphylococcus aureus; details: EMRSA-15 in MHB, sub-inhibitory challenge v unchallenged; fold change, 1H HR-MAS NMR of pellets
Procedure: S. aureus EMRSA-15 and P. aeruginosa RP73 were streaked on Mueller Hinton agar plates and RPMI (supplemented with 5% FBS) agar plates and incubated at 37 °C overnight or until single colonies formed. […] Cultures were incubated overnight at 37 °C without shaking and pelleted by centrifugation at 4 °C. The supernatant was removed and filtered separately for spent media analysis, the pellet was briefly washed three times with phosphate buffered saline (PBS). The pellets were frozen in liquid nitrogen and lyophilised overnight in an Alpha 1–2 LD plus freeze dryer (Martin Christ, Germany) and stored at −20 °C until required. Samples were transferred into HR-MAS inserts for use in 4 mm Bruker MAS rotor and resuspended in 30 μl of D2O containing 3-(Trimethylsilyl)propionic-2,2,3,3-D4 acid sodium salt (TMSP-2,2,3,3-D4). The removed supernatant was filtered through 0.2 μm filters and pH adjusted to within 0.3 pH units within the same sample set. The samples were supplemented with 10% D2O containing TMSP-2,2,3,3-D4 and loaded into 5.0 mm NMR tubes.
NMR spectra were collected at 600 MHz for ^1H on a Bruker Avance II spectrometer (Bruker Biospin, Coventry, UK) with a 4 mm HR-MAS probe at 310 K while spinning at 5 kHz. ^1H NMR spectra were acquired using a Carr-Purcell Meiboom-Gill pre-saturation (cpmgpr1d) pulse sequence with a spectrum width of 16.0 ppm and 9615 data points using 64 transients. Free induction decay was multiplied by an exponential function with 0.293 Hz line broadening. 2D ^1H–^1H correlation spectroscopy (COSY) and ^1H–^13C Heteronuclear Single Quantum Correlation (HSQC) experiments were performed on representative datasets using standard Bruker settings.
The spectra were Fourier transformed automatically using standard Bruker commands and manually phased and baseline corrected in Bruker TopSpin 4.0 (Bruker Biospin, Coventry, UK). Spectral pre-processing, cross-validation and multivariate analysis were carried out using the in-house programme developed by Dr Louic Vermeer and MVAPACK, an opensource Octave library for NMR metabolomic data processing and analysis. Pre-processing modifies NMR spectra and reduces the variances and influences which are not of interest and may interfere with data analysis, for example, residual water peak or noise and the TSP reference peak. Initially a principle component analysis was carried out to identify clustering spectra and potential outliers in the data, due to e.g. poor baseline. Data were then subject to probabilistic quotient normalisation before binning and alignment. Orthogonal Projections to Latent Structures Discriminant Analysis analyses were conducted to establish the quality of binary comparisons of the metabolomic data (Supplementary Table 4). […] The Mann–Whitney U test was used to compare means and associated p values were false discovery rate adjusted using the Benjamini-Hochberg method (α = 0.05). Box plots were generated using changes in normalised intensity for each metabolite and significant differences between challenges and controls were determined using a one-way ANOVA. Volcano plots and box plots were generated using in-house software developed for Jupyter Notepad using Python 3.7.0. Metabolites were assigned using the databanks: Chenomx NMR suite software (Chenomx Inc., Canada), Human Metabolome Database, BMRB, E. coli Metabolome Database and AOCS lipid library; and a comparison of chemical shifts to the literature, which was confirmed using 2D NMR spectra. Annotated spectra can be found in the supplementary materials (Supplementary Fig. 15). Metaboanalyst and KEGG were later used to identify key pathways that may be affected by these metabolites.

[7] = Murine EMRSA-15 lung infection model: body weight; assay type: in vivo, C57Bl6J mice; details: cumulative 15 or 1.5 mg/kg/48 h D-pleurocidin-KR; 600 mg/kg vancomycin; i.v.
[8] = tested on: BAL cells; test: Murine EMRSA-15 lung infection model: BAL total and differential cell count; assay type: in vivo, C57Bl6J mice; details: 48 h
Procedure: Using the recently developed method[65], an overnight culture of EMRSA-15 was prepared in tryptic soy broth (TSB). EMRSA-15 was cultured in TSB overnight at 37 °C, adjusted to a starting OD600 of 0.025, and grown for additional 4 h for agar beads preparation. EMRSA-15 was embedded into agar beads by mixing the overnight culture with molten tryptic soy agar, which was then spun into warmed mineral oil. The preparation was cooled and centrifuged at 2700 × g, the remaining oil was eliminated, and the beads were washed in sterile PBS. The CFU content of the beads slurry was subsequently quantified on TSA plates and the beads slurry then diluted to 2 × 10^7 CFU/ml in sterile PBS to deliver a final dose of 1 × 10^6 CFU/mouse. Animal work was performed in accordance with the Animals (Scientific Procedures) Act of 1986 (United Kingdom) and 2012 revisions with local ethical approval of King’s College London. On day 0, male C57Bl6J mice (8–10 weeks, Charles River) were anaesthetised under Isoflurane and 50 µl inoculum of EMRSA-15 embedded in agar beads (10^6 CFU/mouse) was instilled directly into the respiratory tract via oropharyngeal dosing (o.a.). Sham control mice were inoculated with sterile PBS agar beads. […] Body weight was measured daily, and animals monitored at regular intervals for signs of pain and distress. After 48 h of pulmonary infection, animals were terminally euthanized using 25% urethane via intra-peritoneal injection. CFUs were quantified in lung homogenates. Lung homogenates were then centrifuged at 14000 rpm for 30 min at 4 °C and the supernatants were stored at −80 °C for future analysis. For BAL fluid collection and analysis (total and differential cell count), a 22-gauge catheter was inserted into the trachea and BAL was recovered by instillation of 0.5 ml of sterile PBS three times and total cells counts were performed by adding Turks stain in a 1:1 ratio. BAL fluid was then centrifuged, and supernatants were stored at −20 °C. Total levels of TNFα, IL-6, KC and MCP-1 were quantified from BAL fluid collected from all animals and measured by ELISA according to the manufacturer protocol (R&D Systems UK). Concentrations of all mediators were then normalised to total protein content of BAL fluid quantified via bicinchoninic acid total protein assays performed to manufacturers protocols (Thermofisher Scientific). […] Statistical analysis was by one-way ANOVA with Dunnett’s multiple comparisons test.

[9] = tested on: TNFα; test: Murine EMRSA-15 lung infection model: BAL cytokine ELISA; assay type: in vivo, C57Bl6J mice; details: vancomycin or D-pleurocidin-KR i.v., 48 h
[10] = tested on: IL-6; test: as above; assay type: in vivo, C57Bl6J mice; details: 600 mg/kg vancomycin or D-pleurocidin-KR (also lowest dose 0.15 mg/kg) i.v., 48 h
[11] = tested on: KC; test: as above; assay type: in vivo, C57Bl6J mice; details: 600 mg/kg vancomycin or the two higher D-pleurocidin-KR doses (15, 1.5 mg/kg) i.v., 48 h
[12] = tested on: MCP-1; test: as above; assay type: in vivo, C57Bl6J mice; details: vancomycin or D-pleurocidin-KR i.v., 48 h
[13] = tested on: S. aureus USA300; details: 200 mg/kg vancomycin i.p.; cited from earlier work

SMILES: CC(C)C[C@@H](NC(=O)[C@@H](Cc1ccc(O)cc1)NC(=O)[C@@H](Cc1c[nH]cn1)NC(=O)[C@H](NC(=O)[C@@H](CC(C)C)NC(=O)[C@@H](C)NC(=O)[C@@H](C)NC(=O)[C@@H](CCCCN)NC(=O)CNC(=O)[C@@H](C)NC(=O)[C@@H](Cc1c[nH]cn1)NC(=O)[C@@H](CCCCN)NC(=O)CNC(=O)[C@@H](C)NC(=O)[C@@H](Cc1c[nH]cn1)NC(=O)[C@@H](C)NC(=O)[C@@H](C)NC(=O)[C@@H](CCCCN)NC(=O)[C@@H](CCCCN)NC(=O)[C@@H](Cc1ccccc1)NC(=O)[C@@H](Cc1ccccc1)NC(=O)[C@@H](CO)NC(=O)CNC(=O)[C@@H](Cc1c[nH]c2ccccc12)NC(=O)CN)[C@H](C)O)C(N)=O [D-pleurocidin-VA] (H-G[dW]G[dS][dF][dF][dK][dK][dA][dA][dH][dA]G[dK][dH][dA]G[dK][dA][dA][dL][dT][dH][dY][dL]-NH2; N-terminus assumed)
- Toxicity HEK293 (EC50 / IC50) [1]: (217.3 ± 46.5) µg/ml
- Toxicity A549 (EC50 / IC50) [2]: (>250) µg/ml
- Toxicity Calu-3 (EC50 / IC50) [3]: (>250) µg/ml
- Toxicity HeLa (EC50 / IC50) [4]: (198.2 ± 10.2) µg/ml
- haemolysis at the highest concentration tested 400 µg/ml [5]: Neither pleurocidin-VA nor D-pleurocidin-VA induce detectable haemolysis
- fc 2-aminobutyrate [6]: 0.991
- fc Acetate [6]: 1.149
- fc Acetyl-Phosphocholine (1) [6]: 0.9923
- fc Acetyl-Phosphocholine (2) [6]: 1.003
- fc Adenosine [6]: 1.125
- fc Alanine [6]: 0.9478
- fc Aspartate [6]: 0.8483
- fc Betaine [6]: 0.9779
- fc Choline [6]: 1.051
- fc Citrulline [6]: 0.9363
- fc Glutamate [6]: 0.896
- fc Glycerol (lipid headgroup) (1) [6]: 0.9028
- fc Glycerol (lipid headgroup) (2) [6]: 1.031
- fc Glycerol (lipid headgroup) (3) [6]: 0.9777
- fc Isoleucine [6]: 1.148
- fc Lactate [6]: 1.293
- fc Leucine [6]: 1.172
- fc Lipid -CH=CH- [6]: 1.134
- fc Lipid-CH₃ [6]: 1.116
- fc Lysine [6]: 1.027
- fc N-acetyl-x (1) [6]: 0.8941
- fc N-acetyl-x (2) [6]: 1.036
- fc N-acetyl-x (3) [6]: 0.9489
- fc Proline [6]: 1.056
- fc Succinate [6]: 0.8785
- fc Unassigned 1.47ppm [6]: 0.8868
- fc Unassigned 3.4802ppm [6]: 0.9293
- fc Unassigned 8.55ppm [6]: 0.9285
- fc Uracil [6]: 1.738
- fc Valine [6]: 1.029
- fc ᴅ-alanine (LTA) [6]: 1.157

SMILES: CC(C)C[C@@H](NC(=O)[C@@H](Cc1ccc(O)cc1)NC(=O)[C@@H](Cc1c[nH]cn1)NC(=O)[C@H](NC(=O)[C@@H](CC(C)C)NC(=O)[C@@H](C)NC(=O)[C@@H](C)NC(=O)[C@@H](CCCCN)NC(=O)CNC(=O)[C@H](NC(=O)[C@@H](Cc1c[nH]cn1)NC(=O)[C@@H](CCCCN)NC(=O)CNC(=O)[C@H](NC(=O)[C@@H](Cc1c[nH]cn1)NC(=O)[C@@H](C)NC(=O)[C@@H](C)NC(=O)[C@@H](CCCCN)NC(=O)[C@@H](CCCCN)NC(=O)[C@@H](Cc1ccccc1)NC(=O)[C@@H](Cc1ccccc1)NC(=O)[C@@H](CO)NC(=O)CNC(=O)[C@@H](Cc1c[nH]c2ccccc12)NC(=O)CN)C(C)C)C(C)C)[C@H](C)O)C(N)=O [D-pleurocidin] (H-G[dW]G[dS][dF][dF][dK][dK][dA][dA][dH][dV]G[dK][dH][dV]G[dK][dA][dA][dL][dT][dH][dY][dL]-NH2; N-terminus assumed)
- Toxicity HEK293 (EC50 / IC50) [1]: (61.4 ± 3.9) µg/ml
- Toxicity A549 (EC50 / IC50) [2]: (79.3 ± 7.2) µg/ml
- Toxicity Calu-3 (EC50 / IC50) [3]: (41.9 ± 1.8) µg/ml
- Toxicity HeLa (EC50 / IC50) [4]: (47.1 ± 2.1) µg/ml
- concentration at which 10% haemolysis is achieved ([5]; three biological replicates): 240 µg/mL
- fc 2-aminobutyrate [6]: 1.089
- fc Acetate [6]: 7.742
- fc Acetyl-Phosphocholine (1) [6]: 0.8504
- fc Acetyl-Phosphocholine (2) [6]: 0.9675
- fc Adenosine [6]: 0.737
- fc Alanine [6]: 0.9988
- fc Aspartate [6]: 0.9699
- fc Betaine [6]: 1.128
- fc Choline [6]: 0.8079
- fc Citrulline [6]: 0.7893
- fc Glutamate [6]: 0.9017
- fc Glycerol (lipid headgroup) (1) [6]: 1.108
- fc Glycerol (lipid headgroup) (2) [6]: 0.9648
- fc Glycerol (lipid headgroup) (3) [6]: 0.9439
- fc Isoleucine [6]: 0.8635
- fc Lactate [6]: 0.8326
- fc Leucine [6]: 0.8297
- fc Lipid -CH=CH- [6]: 1.03
- fc Lipid-CH₃ [6]: 0.9623
- fc Lysine [6]: 0.8706
- fc N-acetyl-x (1) [6]: 1.103
- fc N-acetyl-x (2) [6]: 1.06
- fc N-acetyl-x (3) [6]: 0.8909
- fc Proline [6]: 0.991
- fc Succinate [6]: 0.6241
- fc Unassigned 1.47ppm [6]: 0.9642
- fc Unassigned 3.4802ppm [6]: 1.011
- fc Unassigned 8.55ppm [6]: 5.383
- fc Uracil [6]: 0.4342
- fc Valine [6]: 0.8108
- fc ᴅ-alanine (LTA) [6]: 1.199

SMILES: CN[C@H](CC(C)C)C(=O)N[C@H]1C(=O)N[C@@H](CC(N)=O)C(=O)N[C@H]2C(=O)N[C@H]3C(=O)N[C@H](C(=O)N[C@H](C(=O)O)c4cc(O)cc(O)c4-c4cc3ccc4O)[C@H](O)c3ccc(c(Cl)c3)Oc3cc2cc(c3O[C@@H]2O[C@H](CO)[C@@H](O)[C@H](O)[C@H]2O[C@H]2C[C@](C)(N)[C@H](O)[C@H](C)O2)Oc2ccc(cc2Cl)[C@H]1O [vancomycin, reference compound]
- weight loss over the 48-h infection period [7]: mitigates this weight loss
- neutrophil recruitment (BAL) ([8]; 600 mg/kg vancomycin or D-pleurocidin-KR (also lowest dose 0.15 mg/kg) i.v.): reduced
- macrophage numbers in BAL ([8]; vancomycin or D-pleurocidin-KR i.v.): No effects
- levels of TNFα in BAL [9]: No effects
- IL-6 in BAL [10]: reduced
- KC levels in BAL [11]: fall to that of the uninfected group
- levels of MCP-1 in BAL [12]: No effects
- reduction in S. aureus USA300 CFU [13]: comparable reduction
